Test results as given in patent US20150031655A1, “COMBINATION OF LIVER X RECEPTOR MODULATOR AND ESTROGEN RECEPTOR MODULATOR FOR THE TREATMENT OF AGE-RELATED DISEASES” (UNIVERSITY OF NORTH DAKOTA, priority 2011, published 2015).

Key:
[1] = tested on: TH promoter; experiment: Dual-luciferase TH promoter assay; type: cell-based, human; conditions: SH-SY5Y transfected with TH promoter-luciferase, 24 h
Method: Constructs encoding ERE and TH promoter conjugated to the firefly luciferase gene were used in the study. Human neuroblastoma SH-SY5Y cells were plated in 96-well plates at a density of 2×10^4 cells/well. The cells were transfected when 80% confluent with 0.25 μg of either ERE-firefly Luciferase reporter construct, LXRE-firefly Luciferase reporter construct, or TH promotor-firefly Luciferase promoter construct. Respective non-inducible reporter constructs containing constitutively expressing Renilla luciferase were used as negative internal controls. Constitutively expressing GFP constructs were used as positive control to determine transfection efficiency. Cells were incubated for 24 hours with Opti-MEM serum free medium (Invitrogen, Carlsbad, Calif.) containing the reporter constructs dissolved in transfection reagent. After 24 hours the medium was changed and the cells were incubated in normal DMEM/F12 medium containing 10% FBS and cells were treated with the different treatment regimens. The cells were treated in triplicate and harvested 24 hours later and subjected to dual-luciferases assay. The dual-luciferase assay was performed using a “Dual-Luciferase Reporter Assay System” from Promega (Madison, Wis.). The luminescence recorded is expressed as Relative Luminescence Units (RLU) and normalized to per mg protein. Unit value was assigned to control and the magnitude of differences among the samples is expressed relative to the unit value of control cells.

[2] = biological target: T1, ERα (Homo sapiens, UniProt P03372); experiment: ChIP, ERα binding to the ERE half site in the TH promoter; type: cell-based; conditions: SH-SY5Y, treatment alone vs control
T1 construct: endogenous in cells; host or cells: SH-SY5Y human neuroblastoma cells
T1 sequence (P03372 1-595): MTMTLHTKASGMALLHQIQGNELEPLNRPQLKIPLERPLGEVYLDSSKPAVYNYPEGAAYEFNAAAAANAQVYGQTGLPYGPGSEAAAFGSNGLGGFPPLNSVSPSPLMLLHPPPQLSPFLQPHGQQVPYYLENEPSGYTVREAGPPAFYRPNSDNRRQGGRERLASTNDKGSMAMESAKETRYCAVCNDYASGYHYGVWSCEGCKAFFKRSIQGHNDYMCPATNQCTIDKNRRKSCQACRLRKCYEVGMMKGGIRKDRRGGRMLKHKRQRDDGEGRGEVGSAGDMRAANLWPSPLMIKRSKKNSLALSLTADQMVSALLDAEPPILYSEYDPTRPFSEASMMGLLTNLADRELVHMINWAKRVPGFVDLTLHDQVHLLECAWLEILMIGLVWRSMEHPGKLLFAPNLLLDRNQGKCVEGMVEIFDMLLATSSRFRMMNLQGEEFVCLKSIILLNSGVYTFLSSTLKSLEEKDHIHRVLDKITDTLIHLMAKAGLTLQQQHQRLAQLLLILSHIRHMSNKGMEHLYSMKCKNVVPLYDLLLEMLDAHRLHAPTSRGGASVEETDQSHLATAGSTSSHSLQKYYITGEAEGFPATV
Method: (§1) Human neuroblastoma SH-SY5Y cells were grown in DMEM/F12 medium containing 10% fetal bovine serum (FBS) and 1% antibiotic/antimycotic mix. Cells were maintained at 37° C. in a saturated humidity atmosphere containing 95% air and 5% CO2.
(§2) ChIP analysis was performed to evaluate the extent of ERα/ERβ and LXRα/LXRβ binding to the DNA elements in the TH promoter and α-synuclein promoter regions respectively using “SimpleChIP™ Enzymatic Chromatic IP kit” from Cell Signaling (Boston, Mass.).
(§3) Briefly, cells from each treatment group (3×10^6 cells) were washed with PBS, trypsinized, centrifuged at 5000 g. The pellet containing the cells was further washed with PBS and cross-linked using 37% formaldehyde for 15 min followed by the addition of glycine solution to cease the cross-linking reaction.
(§4) The cells were washed with 4× volumes of 1×PBS and centrifuged at ˜220 g for 5 min. The pellet was resuspended and incubated for 10 min in 5 ml of tissue lysis buffer containing DTT and protease and phosphatase inhibitors. The subsequent steps to isolate the cross-linked chromatin were performed according to the manufacturer's protocol.
(§5) The cross-linked chromatin from each sample was apportioned into four equal parts.

[3] = biological target: T1, ERα; experiment: Western blot of ERα levels in the nucleus (nuclear translocation), SH-SY5Y cells; type: cell-based; conditions: 24 h, treatment alone vs control
Method: as §1

[4] = tested on: ERE-mediated transcription; experiment: Dual-luciferase ERE reporter assay (ER-mediated transcription); type: cell-based, human; conditions: SH-SY5Y transfected with ERE-luciferase, 24 h
Method: Constructs encoding ERE and TH promoter conjugated to the firefly luciferase gene were used in the study. Human neuroblastoma SH-SY5Y cells were plated in 96-well plates at a density of 2×10^4 cells/well.
The cells were transfected when 80% confluent with 0.25 μg of either ERE-firefly Luciferase reporter construct, LXRE-firefly Luciferase reporter construct, or TH promotor-firefly Luciferase promoter construct. Respective non-inducible reporter constructs containing constitutively expressing Renilla luciferase were used as negative internal controls. Constitutively expressing GFP constructs were used as positive control to determine transfection efficiency.
Cells were incubated for 24 hours with Opti-MEM serum free medium (Invitrogen, Carlsbad, Calif.) containing the reporter constructs dissolved in transfection reagent. After 24 hours the medium was changed and the cells were incubated in normal DMEM/F12 medium containing 10% FBS and cells were treated with the different treatment regimens.
The cells were treated in triplicate and harvested 24 hours later and subjected to dual-luciferases assay. The dual-luciferase assay was performed using a “Dual-Luciferase Reporter Assay System” from Promega (Madison, Wis.). The luminescence recorded is expressed as Relative Luminescence Units (RLU) and normalized to per mg protein. […]

[5] = tested on: ERα/β; experiment: EMSA, binding of nuclear ER to probe for the ERE half site in the TH promoter; type: cell-based, human; conditions: nuclear extracts of treated SH-SY5Y, treatment alone vs control
[6] = tested on: TH mRNA; experiment: Real time RT-PCR of TH mRNA in SH-SY5Y cells; type: cell-based, human; conditions: 24 h, treatment alone vs control
Method: as §1
Total RNA was isolated and extracted from treated cells using the 5 prime “PerfectPure RNA tissue kit” (5 Prime, Inc., Gaithersburg, Md.). RNA estimation was performed using “Quant-iT RNA Assay Kit” using a Qubit fluorometer according to the manufacturer's protocol (Invitrogen, Carlsbad, Calif.). cDNA was synthesized by reverse transcribing 1 μg of extracted RNA using an “iScript cDNA synthesis kit” (BioRad, Hercules, Calif.). The oligomeric primers (Sigma, St Louis, Mo.) used to amplify the TH mRNA and α-synuclein mRNA are enumerated in Table 1. The cDNA amplification was performed using an iQ SYBR Green Supermix kit following the manufacturer's instructions (BioRad, Hercules, Calif.). The amplification was performed using an iCycler iQ Multicolor Real Time PCR Detection System (BioRad, Hercules, Calif.). The expression of specific TH and α-synuclein transcripts amplified were normalized to the expression of glyceraldehyde-3-phosphate dehydrogenase (GAPDH).

[7] = biological target: T2, ERβ (Homo sapiens, UniProt Q92731); experiment: ChIP, ERβ binding to the ERE half site in the TH promoter; type: cell-based; conditions: SH-SY5Y, treatment alone vs control
T2 construct: endogenous in cells; host or cells: SH-SY5Y human neuroblastoma cells
Method: as §1, §2, §3, §4, §5

T2 sequence (Q92731 whole entry): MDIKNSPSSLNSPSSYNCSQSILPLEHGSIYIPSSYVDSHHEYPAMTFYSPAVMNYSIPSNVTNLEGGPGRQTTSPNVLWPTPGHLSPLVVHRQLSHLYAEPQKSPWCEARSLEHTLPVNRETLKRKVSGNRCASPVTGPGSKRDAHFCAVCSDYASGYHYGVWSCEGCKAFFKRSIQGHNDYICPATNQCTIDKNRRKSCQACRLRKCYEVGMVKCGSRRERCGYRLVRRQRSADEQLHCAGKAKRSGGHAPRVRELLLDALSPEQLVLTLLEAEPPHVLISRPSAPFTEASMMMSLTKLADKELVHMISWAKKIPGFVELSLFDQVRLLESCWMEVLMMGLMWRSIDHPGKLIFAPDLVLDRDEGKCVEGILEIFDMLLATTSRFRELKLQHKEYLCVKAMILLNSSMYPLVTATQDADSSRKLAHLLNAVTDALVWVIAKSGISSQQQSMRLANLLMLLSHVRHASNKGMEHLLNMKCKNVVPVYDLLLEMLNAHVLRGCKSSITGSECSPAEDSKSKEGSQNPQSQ

SMILES: C[C@@H](CO)CCC[C@@H](C)[C@H]1CC[C@H]2[C@@H]3CC=C4C[C@@H](O)CC[C@]4(C)[C@H]3CC[C@]12C [27-OHC, 27-hydroxycholesterol]
- reduction of TH promoter activity [1]: ~4 fold
- ERα binding to the ERE on the TH promoter [2]: no significant attenuation
- nuclear translocation / nuclear levels of ERα [3]: decrease
- decrease of ER-mediated transcription [4]: ~5 fold
- binding of nuclear ER to the DNA probe corresponding to the ERE-half site on the TH promoter [5]: lower binding
- TH mRNA [6]: reduces
- attenuation of ERβ binding to the ERE on the TH promoter [7]: 4 fold
